Reference: patent US8987216B2, “Polysulfated glycosides and salts thereof” (Teva Hungary Pharmaceutical Marketing Private Limited …, priority 2004, dated 2015)
Counter-ions that a name gives are not always drawn. Like-named read-outs stand apart in the source and are kept apart here.

Assays:
IP-3 receptor = biological target: T1, IP-3 receptor (Rattus norvegicus, UniProt P29994); assay: IP-3 receptor antagonistic effect: inhibition of IP3 binding to its receptor in rat cerebellum membrane preparations
T1 construct: determined using rat cerebellum membrane preparations; from tissue; host or cells: rat cerebellum (microsomal membrane preparation)
Method: Glycosides of the present invention, depending on their chemical structure, inhibit the binding of inositol-1,4,5-trisphosphate (IP3) to its receptor in microsomal membrane preparations. As IP3 is a messenger molecule playing distinguished role in the activation of different cells, interfering with this function can explain the anti-asthmatic effect of these polysulfated glycosides.
The IP3 antagonist effect of the polysulfated glycosides were determined using rat cerebellum membrane preparations according to Worley et al. (JBC 262, 12132, 1987).

BN rats [1] = assay: Effect on the allergen stimulated mucus production of airways epithelial cells (PAS(+) cell count in lung sections); type: in vivo, Brown Norway (BN) rats; conditions: lungs 48 hours after challenge, Control 2.2 ± 0.9, Challenge 15.8 ± 2.8
Method: Sensitized BN rats were treated intratracheally with varying (0.01-1.0 mg/kg) dose of compound described in example 4, two hours before antigenic challenge, using a similar protocol described in Model 1. Lungs were collected 48 hours after challenge and were fixed in 8% phosphate buffered formaldehyde. Samples were then processed for histochemistry routinely. 5 μm thick sections were stained with periodic-acid-Schiff (PAS) reagents and were counterstained with haematoxylineosine. On the sections each epithelial cells of the airways were counted in the whole preparation at a magnification of 400×. The number of PAS(+) [mucus producing] epithelial cells was expressed as the ratio of the total number of epithelial cells.
As it is shown in Table 2, allergen challenge stimulates the mucus production of airways epithelial cells (control vs. challenge).

BN rats [2] = assay: Effect on the extent of perivascular oedema developed in asthmatic lung tissue; type: in vivo, Brown Norway (BN) rats; conditions: Control 55 ± 6, Challenge 209 ± 12
Method: Sensitized BN rats were treated intratracheally with varying (0.01-1.0 mg/kg) dose of compound described in example 4, two hours before antigenic challenge, using a similar protocol described in Model 1. Lungs were collected […] and were fixed in 8% phosphate buffered formaldehyde. Samples were then processed for histochemistry routinely. 5 μm thick sections were stained with periodic-acid-Schiff (PAS) reagents and were counterstained with haematoxylineosine. On the 5 μm sections, the area of the connective tissue around the vasculare was determined and expressed as a ratio of the area of the corresponding blood vessel itself.

BN-rats = assay: Effect of locally (intratracheally) administered polysulfated glycosides on airways' hyperresponsiveness ex vivo (tracheal contraction to acetylcholine after antigen challenge); type: in vivo, Brown Norway (BN) rats; conditions: Control 100 ± 0, Placebo 334 ± 68
Method: Brown Norway (BN) rats were actively sensitized to ovalbumin (OA) by a subcutaneous injection of 0.5 ml of OA/A1(OH)3 gel mixture (2 mg OA+10 g A1(OH)3/100 ml saline) on day 1 with subsequent subcutaneous injections (10 mg OA+10 g A1(OH)3/100 ml saline) given on days 14 and 21. On day 28, animals received the compound described in example 4 intratracheally (0.01; 0.1 or 1.0 mg/kg dose) 2 hours before antigen challenge. Antigen challenge was performed by inhalation of nebulised ovalbumin (1% antigen solution administered in a TSE inhalation system for 1 hour). Animals were sacrificed 48 hours post antigen challenge wherein the tracheas were removed to an organ bath. Dissected tracheas were allowed to equilibrate for 30 minutes before measuring tracheal spasmogenic response curves to acetylcholine (Ach).
As shown in Table 1 ovalbumin challenge of sensitized animals in this model caused a significant tracheal hyper-reactivity to acetylcholine, when the response to the spasmogenic agent was determined 48 h after antigen challenge.

[3] = 0.01 mg/kg intratracheally two hours before antigenic challenge
[4] = 0.1 mg/kg intratracheally two hours before antigenic challenge

T1 sequence (P29994 whole entry): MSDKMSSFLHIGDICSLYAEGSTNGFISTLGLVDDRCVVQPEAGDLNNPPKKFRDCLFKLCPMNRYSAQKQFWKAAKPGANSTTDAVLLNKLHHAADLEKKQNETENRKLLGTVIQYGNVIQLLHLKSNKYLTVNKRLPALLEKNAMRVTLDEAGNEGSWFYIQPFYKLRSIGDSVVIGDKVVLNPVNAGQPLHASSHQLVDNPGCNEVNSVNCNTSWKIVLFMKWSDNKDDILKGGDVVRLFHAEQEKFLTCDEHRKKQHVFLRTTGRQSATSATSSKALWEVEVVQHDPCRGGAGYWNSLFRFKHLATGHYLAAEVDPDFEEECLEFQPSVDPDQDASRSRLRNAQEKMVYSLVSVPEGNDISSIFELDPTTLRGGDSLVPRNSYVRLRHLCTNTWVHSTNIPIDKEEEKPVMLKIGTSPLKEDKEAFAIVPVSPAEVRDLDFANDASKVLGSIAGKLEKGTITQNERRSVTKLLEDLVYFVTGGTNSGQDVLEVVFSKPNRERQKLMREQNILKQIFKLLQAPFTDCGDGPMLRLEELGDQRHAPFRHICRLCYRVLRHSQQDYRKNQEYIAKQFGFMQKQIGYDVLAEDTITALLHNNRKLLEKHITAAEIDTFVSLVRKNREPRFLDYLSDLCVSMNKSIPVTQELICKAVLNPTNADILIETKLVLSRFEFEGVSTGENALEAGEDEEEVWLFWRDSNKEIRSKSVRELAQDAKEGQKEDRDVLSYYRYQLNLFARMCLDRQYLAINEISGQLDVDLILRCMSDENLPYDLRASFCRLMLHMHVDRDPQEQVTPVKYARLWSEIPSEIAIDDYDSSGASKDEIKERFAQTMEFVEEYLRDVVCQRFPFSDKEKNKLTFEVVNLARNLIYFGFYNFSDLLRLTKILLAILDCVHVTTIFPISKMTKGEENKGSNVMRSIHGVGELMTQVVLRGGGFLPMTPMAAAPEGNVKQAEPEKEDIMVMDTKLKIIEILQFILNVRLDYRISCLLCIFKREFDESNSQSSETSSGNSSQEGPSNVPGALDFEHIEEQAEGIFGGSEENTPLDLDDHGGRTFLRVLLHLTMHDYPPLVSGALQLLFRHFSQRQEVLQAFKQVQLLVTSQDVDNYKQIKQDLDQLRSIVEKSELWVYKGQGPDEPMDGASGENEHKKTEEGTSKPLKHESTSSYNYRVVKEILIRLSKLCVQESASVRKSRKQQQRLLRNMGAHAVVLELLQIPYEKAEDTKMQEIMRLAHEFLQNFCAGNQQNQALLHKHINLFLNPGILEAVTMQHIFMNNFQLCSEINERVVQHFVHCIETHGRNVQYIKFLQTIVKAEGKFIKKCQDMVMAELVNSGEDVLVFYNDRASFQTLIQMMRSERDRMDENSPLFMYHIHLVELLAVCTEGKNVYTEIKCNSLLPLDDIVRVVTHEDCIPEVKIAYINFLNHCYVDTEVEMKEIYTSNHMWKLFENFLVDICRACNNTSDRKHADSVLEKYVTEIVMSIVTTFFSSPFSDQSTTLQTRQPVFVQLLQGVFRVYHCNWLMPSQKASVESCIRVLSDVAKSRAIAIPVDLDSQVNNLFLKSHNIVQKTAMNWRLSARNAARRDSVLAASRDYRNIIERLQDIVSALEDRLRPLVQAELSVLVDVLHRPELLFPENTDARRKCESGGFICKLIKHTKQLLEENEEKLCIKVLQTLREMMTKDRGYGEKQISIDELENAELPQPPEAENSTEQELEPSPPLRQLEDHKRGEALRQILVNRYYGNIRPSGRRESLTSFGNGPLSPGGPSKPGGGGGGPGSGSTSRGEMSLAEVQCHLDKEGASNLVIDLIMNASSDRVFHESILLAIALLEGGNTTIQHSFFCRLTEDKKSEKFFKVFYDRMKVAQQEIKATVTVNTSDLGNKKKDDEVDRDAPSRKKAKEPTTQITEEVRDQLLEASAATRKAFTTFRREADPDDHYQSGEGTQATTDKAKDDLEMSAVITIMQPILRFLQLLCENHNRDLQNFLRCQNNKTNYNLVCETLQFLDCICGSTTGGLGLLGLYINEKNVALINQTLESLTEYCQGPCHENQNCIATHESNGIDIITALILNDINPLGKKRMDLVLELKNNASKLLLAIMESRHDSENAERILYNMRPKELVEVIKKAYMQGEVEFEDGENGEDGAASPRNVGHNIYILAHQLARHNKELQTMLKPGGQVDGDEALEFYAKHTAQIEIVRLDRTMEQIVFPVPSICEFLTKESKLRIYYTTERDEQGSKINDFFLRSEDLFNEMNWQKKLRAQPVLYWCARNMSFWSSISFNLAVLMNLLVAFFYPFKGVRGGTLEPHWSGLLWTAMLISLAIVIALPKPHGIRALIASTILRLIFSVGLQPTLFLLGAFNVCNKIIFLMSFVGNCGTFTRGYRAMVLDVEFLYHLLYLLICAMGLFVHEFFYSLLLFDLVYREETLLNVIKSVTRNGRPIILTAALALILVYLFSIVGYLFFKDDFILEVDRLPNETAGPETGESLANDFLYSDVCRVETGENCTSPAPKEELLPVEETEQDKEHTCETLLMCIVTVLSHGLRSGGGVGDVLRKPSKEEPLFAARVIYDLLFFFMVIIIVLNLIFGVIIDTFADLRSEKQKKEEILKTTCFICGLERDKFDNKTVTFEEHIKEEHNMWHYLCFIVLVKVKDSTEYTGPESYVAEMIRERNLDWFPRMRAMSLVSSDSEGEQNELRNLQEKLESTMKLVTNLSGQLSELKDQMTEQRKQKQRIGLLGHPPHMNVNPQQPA

IC50 (IP-3 receptor; read-out: Average IC50): 163 nM | IC50 (IP-3 receptor; read-out: IC 50 (μg/ml) Average ± SEM (n) (converted)): 216 nM
SMILES: O=S(=O)(O)OC[C@H](OS(=O)(=O)O)[C@@H](O[C@@H]1O[C@H](COS(=O)(=O)O)[C@@H](OS(=O)(=O)O)[C@H](OS(=O)(=O)O)[C@H]1OS(=O)(=O)O)[C@H](OS(=O)(=O)O)[C@@H](COS(=O)(=O)O)OS(=O)(=O)O [Example 4, 1,2,4,5,6-penta-O-sulfato-3-O-(2,3,4,6-tetra-β-sulfato-β-D-glucopyranosyl)-D-glucitol nona potassium salt]
number of PAS(+) cells as percent of total number of cells (average ± SEM) (BN rats [1]; [3]): 15.0 ± 2.7% | number of PAS(+) cells as percent of total number of cells (average ± SEM) (BN rats [1]; [4]): 6.3 ± 1.5% | Oedema: area of oedema relative to area of vasculature (average ± SEM) (BN rats [2]; [3]): 113 ± 7 | Oedema: area of oedema relative to area of vasculature (average ± SEM) (BN rats [2]; [4]): 106 ± 8 | MAX: Contraction at maximal Ach concentration relative to control (mean ± SEM) (BN-rats; 0.01 mg/kg intratracheally 2 hours before ovalbumin challenge): 134 ± 26 | MAX: Contraction at maximal Ach concentration relative to control (mean ± SEM) (BN-rats; 1.0 mg/kg intratracheally 2 hours before ovalbumin challenge): 116 ± 37
